This passage reports ED50 and IC50 results from patent US6951889B2, “2-amino-2-alkyl-5 heptenoic and heptynoic acid derivatives useful as nitric oxide synthase inhibitors” (Pharmacia Corporation, priority 2000, dated 2005).

The subject of assay [1] is LPS-induced increase in plasma nitrite/nitrate levels. The experiment in a line: In vivo assay in endotoxin-treated rats. Particulars: Rattus norvegicus, po, administered orally 0.5-1 hours prior to LPS, plasma nitrite/nitrate 5 hours following LPS, read-out: ED50 for inhibition of the LPS-induced increase in plasma nitrite/nitrate levels. The method, then: Compounds are administered orally 0.5-1 hours prior to LPS administration and plasma nitrite/nitrate levels are determined 5 hours following LPS administration.

Assay [2] concerns nitrite production in human cartilage explants induced with recombinant human IL-1β. The experiment in a line: Human cartilage explant assay. The class given is cell-based. Particulars: six concentrations of inhibitor, read-out: IC50 inhibition of nitrite production. As for the experimental part: Bone pieces are rinsed twice with Dulbecco's Phosphate Buffered Saline (GibcoBRL) and once with Dulbecco's Modified Eagles Medium (GibcoBRL) and placed into a petri dish with phenol red free Minimum Essential Medium (MEM) (GibcoBRL). Cartilage was cut into small explants of approximately 15-45 mg in weight and one or two explants per well are placed into either 96 or 48 well culture plates with 200-500 μL of culture media per well. The culture media was either a custom modification of Minimum Essential Medium(Eagle) with Earle's salts (GibcoBRL) prepared without L-Arginine, without L-Glutamine and without phenol red or a custom modification of serumless Neuman and Tytell (GibcoBRL) medium prepared without L-arginine, without insulin, without ascorbic acid, without L-glutamine and without phenol red. […]
The day old supernatant is then discarded and replaced with fresh culture media containing recombinant human IL-1β and compound and incubated for another 20-24 hours. This supernatant is analyzed for nitrite with a fluorometric assay (Misko et al, Anal. Biochem., 214, 11-16, 1993). […] IC50 values (Table III) are determined from plotting the percent inhibition of nitrite production at six different concentrations of inhibitor.

SMILES strings stand for the structures.

The term IC50 denotes the concentration at which inhibition is half-maximal. For `CC(=N)NC/C(F)=C\CC[C@](C)(N)C(=O)O.Cl.Cl` [Example 1, (2S,5E)-2-amino-2-methyl-6-fluoro-7-[(1-iminoethyl)amino]-5-heptenoic acid, Dihydrochloride], in assay [1], the ED50 amounted to 0.4 mg/kg. Besides, in assay [2], the IC50 was found to be 400 nM.
For `CC(=N)NC/C=C\CC[C@](C)(N)C(=O)O.Cl.Cl` [Example 14, (2S,5Z)-2-amino-2-methyl-7-[(1-iminoethyl)amino]-5-heptenoic acid, Dihydrochloride], in assay [1], the ED50 was found to be 0.3 mg/kg. In assay [2], the IC50 came to 800 nM.
